Laboratory results reported in the NIST ThermoML archive (doi:10.1016/j.jct.2010.11.013).
± gives the expanded uncertainty stated by the source.

How the values were obtained:
[1] = refractive index (Na D-line) (dimensionless); conditions: 298.15 K; 101.33 kPa; Liquid; Standard Abbe refractometry
[2] = 298.15 K; 101.33 kPa; Liquid; Vibrating tube method

SMILES	refractive index [1]	mass density [2] [kg/m3]
CCOS(=O)(=O)[O-].CCn1cc[n+](C)c1 [1-ethyl-3-methylimidazolium ethyl sulfate]	1.4791 ± 0.0007	1237.23 ± 0.43
Cc1ccccc1 [toluene]	1.49399 ± 0.00068	862.17 ± 0.11
CCCCCCC [heptane]	1.38515 ± 0.00068	679.56 ± 0.19
CCCCCCCC [octane]	1.39519 ± 0.00068	698.6 ± 0.18
CCCCCCCCC [nonane]	1.40326 ± 0.0007	713.99 ± 0.25
CCCCCC [hexane]	1.37234 ± 0.0007	655.19 ± 0.26
